Reference: ChEMBL document CHEMBL4325862, “Identification of novel quinazoline derivatives as potent antiplasmodial agents” (Eur J Med Chem, 2019)

Tests used:
[1] = target: T1, Protein deacetylase HDAC6 (Homo sapiens, UniProt Q9UBN7); experiment: Inhibition of recombinant human HDAC6 using RHK-K(Ac) as substrate by homogeneous fluorescence release assay
T1 sequence (Q9UBN7 whole entry): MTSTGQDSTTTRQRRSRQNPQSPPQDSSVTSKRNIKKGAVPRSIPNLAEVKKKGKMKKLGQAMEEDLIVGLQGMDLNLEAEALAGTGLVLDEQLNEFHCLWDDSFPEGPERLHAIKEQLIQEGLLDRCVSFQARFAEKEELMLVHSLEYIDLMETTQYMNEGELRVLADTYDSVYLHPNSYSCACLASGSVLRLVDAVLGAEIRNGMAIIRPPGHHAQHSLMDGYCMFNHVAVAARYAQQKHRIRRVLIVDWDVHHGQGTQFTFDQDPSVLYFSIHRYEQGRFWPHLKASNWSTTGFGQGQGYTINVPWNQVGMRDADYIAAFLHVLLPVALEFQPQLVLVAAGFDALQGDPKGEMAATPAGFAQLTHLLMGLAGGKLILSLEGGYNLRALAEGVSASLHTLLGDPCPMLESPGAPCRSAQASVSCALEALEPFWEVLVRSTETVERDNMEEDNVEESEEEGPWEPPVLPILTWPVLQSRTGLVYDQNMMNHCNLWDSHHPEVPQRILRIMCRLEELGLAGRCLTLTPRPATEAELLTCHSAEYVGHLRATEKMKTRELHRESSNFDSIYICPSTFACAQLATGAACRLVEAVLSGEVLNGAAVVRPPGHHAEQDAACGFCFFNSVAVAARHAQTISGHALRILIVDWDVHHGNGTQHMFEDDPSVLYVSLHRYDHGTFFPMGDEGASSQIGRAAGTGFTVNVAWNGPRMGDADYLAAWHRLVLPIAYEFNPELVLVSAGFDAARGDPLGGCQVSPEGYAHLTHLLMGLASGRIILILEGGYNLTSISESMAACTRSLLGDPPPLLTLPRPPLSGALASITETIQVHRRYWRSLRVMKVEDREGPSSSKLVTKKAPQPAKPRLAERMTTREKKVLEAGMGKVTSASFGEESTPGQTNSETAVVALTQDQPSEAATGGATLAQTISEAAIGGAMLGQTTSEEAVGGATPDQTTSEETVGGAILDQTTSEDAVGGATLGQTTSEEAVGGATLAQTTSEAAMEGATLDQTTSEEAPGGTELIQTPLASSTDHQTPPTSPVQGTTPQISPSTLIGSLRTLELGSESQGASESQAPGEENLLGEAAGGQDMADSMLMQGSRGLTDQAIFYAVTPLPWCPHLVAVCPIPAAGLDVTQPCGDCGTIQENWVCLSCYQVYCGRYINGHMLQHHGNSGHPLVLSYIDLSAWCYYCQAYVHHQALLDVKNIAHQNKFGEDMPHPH

Plasmodium falciparum [2] = experiment: Antiplasmodial activity against asynchronous form of Plasmodium falciparum 3D7 infected in human erythrocytes assessed as parasite growth inhibition at 10 uM after 48 hrs by SYBR green1 staining based flow cytometry relative to control; assay type: functional; conditions: 3D7, 48 h
Histone deacetylase 1 = Histone deacetylase 1 (Homo sapiens, UniProt Q13547); experiment: Inhibition of recombinant human HDAC1 using RHK-K(Ac) as substrate by homogeneous fluorescence release assay
Histone deacetylase 1, sequence (Q13547 whole entry): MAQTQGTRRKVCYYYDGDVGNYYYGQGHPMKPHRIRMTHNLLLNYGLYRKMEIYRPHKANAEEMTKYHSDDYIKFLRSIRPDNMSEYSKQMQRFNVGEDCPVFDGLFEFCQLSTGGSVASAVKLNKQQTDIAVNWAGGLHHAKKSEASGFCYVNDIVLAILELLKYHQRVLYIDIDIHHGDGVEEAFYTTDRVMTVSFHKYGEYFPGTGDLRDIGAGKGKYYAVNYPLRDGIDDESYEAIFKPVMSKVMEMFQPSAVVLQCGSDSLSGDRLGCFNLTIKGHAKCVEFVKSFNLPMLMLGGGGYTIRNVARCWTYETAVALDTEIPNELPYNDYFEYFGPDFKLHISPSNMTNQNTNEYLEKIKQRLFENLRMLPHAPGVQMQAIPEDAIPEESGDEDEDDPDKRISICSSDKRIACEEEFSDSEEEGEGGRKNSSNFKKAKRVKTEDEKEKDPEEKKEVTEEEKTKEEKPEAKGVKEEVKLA

Histone deacetylase 4 = Histone deacetylase 4 (Homo sapiens, UniProt P56524); experiment: Inhibition of recombinant human HDAC4 using Boc-Lys(trifluoroacetyl)-AMC as substrate by homogeneous fluorescence release assay
Histone deacetylase 4, sequence (P56524 whole entry): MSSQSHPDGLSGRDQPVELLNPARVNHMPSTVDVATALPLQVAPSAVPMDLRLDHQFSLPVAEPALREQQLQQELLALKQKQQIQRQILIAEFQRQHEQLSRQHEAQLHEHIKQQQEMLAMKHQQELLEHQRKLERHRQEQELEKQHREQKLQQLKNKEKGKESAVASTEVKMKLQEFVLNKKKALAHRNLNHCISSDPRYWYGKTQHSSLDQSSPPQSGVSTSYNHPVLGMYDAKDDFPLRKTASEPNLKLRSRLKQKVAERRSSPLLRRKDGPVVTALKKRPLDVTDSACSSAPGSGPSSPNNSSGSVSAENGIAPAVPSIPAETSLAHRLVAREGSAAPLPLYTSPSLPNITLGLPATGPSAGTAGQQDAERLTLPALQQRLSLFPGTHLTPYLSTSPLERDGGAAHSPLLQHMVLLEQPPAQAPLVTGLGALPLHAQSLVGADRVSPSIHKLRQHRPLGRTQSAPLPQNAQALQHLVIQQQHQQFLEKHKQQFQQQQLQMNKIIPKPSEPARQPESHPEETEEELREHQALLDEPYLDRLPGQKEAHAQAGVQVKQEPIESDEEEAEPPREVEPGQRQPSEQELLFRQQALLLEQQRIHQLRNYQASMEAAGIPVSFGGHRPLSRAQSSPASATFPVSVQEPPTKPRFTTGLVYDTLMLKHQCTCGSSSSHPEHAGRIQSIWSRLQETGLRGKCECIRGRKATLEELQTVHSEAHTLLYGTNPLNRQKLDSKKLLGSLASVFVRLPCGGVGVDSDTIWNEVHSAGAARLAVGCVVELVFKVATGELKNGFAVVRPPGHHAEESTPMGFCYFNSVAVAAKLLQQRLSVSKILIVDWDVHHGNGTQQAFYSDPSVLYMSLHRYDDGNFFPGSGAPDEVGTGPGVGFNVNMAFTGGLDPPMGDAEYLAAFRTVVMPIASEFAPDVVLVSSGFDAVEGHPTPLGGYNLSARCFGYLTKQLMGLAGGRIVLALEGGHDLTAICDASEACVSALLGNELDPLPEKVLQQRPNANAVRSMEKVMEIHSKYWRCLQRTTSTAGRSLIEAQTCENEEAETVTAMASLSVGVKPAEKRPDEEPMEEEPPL

Plasmodium falciparum [3] = experiment: Antiplasmodial activity against asynchronous form of Plasmodium falciparum 3D7 infected in human erythrocytes assessed as parasite growth inhibition after 48 hrs by SYBR green1 staining based flow cytometry; assay type: functional, organism-based; conditions: 3D7, 48 h
[4] = target: DNA (cytosine-5)-methyltransferase 3A (Homo sapiens, UniProt Q9Y6K1); experiment: Inhibition of recombinant human DNMT3a C-terminal catalytic domain (623 to 908 residues) using 5'-biotinylated/3'-FAM-oligonucleotide as substrate measured after 1 hr in presence of Adomet by fluorescence assay
DNA (cytosine-5)-methyltransferase 3A, sequence (Q9Y6K1 whole entry, looked up, the tested form may be a part): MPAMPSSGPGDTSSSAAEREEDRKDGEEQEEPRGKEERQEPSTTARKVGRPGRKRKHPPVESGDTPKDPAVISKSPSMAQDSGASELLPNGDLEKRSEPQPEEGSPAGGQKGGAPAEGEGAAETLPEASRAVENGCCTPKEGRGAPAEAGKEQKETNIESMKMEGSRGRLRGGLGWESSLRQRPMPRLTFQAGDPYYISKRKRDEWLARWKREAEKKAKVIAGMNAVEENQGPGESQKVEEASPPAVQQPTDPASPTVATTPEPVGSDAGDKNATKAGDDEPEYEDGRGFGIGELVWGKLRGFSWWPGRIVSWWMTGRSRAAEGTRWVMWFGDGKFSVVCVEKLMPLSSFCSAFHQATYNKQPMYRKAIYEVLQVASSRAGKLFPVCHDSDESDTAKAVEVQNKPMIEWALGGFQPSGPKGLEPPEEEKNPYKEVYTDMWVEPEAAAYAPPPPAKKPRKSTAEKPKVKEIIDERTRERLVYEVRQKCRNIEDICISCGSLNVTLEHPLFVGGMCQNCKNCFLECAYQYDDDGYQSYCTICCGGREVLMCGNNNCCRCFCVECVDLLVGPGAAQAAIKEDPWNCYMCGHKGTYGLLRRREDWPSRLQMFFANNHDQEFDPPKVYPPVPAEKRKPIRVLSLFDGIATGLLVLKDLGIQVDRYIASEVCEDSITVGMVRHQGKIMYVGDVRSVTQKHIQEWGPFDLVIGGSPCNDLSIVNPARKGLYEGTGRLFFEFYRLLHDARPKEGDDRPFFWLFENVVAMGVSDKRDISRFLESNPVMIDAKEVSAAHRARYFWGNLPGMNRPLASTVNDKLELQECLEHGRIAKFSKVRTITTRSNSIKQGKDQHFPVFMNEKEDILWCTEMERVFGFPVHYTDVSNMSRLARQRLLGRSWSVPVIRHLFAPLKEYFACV

[5] = target: DNA (cytosine-5)-methyltransferase 1 (Homo sapiens, UniProt P26358); experiment: Inhibition of recombinant human DNMT1 using biotinylated DNA duplex as substrate measured after 2 hrs in presence of Adomet/[methyl-3H]Adomet by topcount method
DNA (cytosine-5)-methyltransferase 1, sequence (P26358 whole entry): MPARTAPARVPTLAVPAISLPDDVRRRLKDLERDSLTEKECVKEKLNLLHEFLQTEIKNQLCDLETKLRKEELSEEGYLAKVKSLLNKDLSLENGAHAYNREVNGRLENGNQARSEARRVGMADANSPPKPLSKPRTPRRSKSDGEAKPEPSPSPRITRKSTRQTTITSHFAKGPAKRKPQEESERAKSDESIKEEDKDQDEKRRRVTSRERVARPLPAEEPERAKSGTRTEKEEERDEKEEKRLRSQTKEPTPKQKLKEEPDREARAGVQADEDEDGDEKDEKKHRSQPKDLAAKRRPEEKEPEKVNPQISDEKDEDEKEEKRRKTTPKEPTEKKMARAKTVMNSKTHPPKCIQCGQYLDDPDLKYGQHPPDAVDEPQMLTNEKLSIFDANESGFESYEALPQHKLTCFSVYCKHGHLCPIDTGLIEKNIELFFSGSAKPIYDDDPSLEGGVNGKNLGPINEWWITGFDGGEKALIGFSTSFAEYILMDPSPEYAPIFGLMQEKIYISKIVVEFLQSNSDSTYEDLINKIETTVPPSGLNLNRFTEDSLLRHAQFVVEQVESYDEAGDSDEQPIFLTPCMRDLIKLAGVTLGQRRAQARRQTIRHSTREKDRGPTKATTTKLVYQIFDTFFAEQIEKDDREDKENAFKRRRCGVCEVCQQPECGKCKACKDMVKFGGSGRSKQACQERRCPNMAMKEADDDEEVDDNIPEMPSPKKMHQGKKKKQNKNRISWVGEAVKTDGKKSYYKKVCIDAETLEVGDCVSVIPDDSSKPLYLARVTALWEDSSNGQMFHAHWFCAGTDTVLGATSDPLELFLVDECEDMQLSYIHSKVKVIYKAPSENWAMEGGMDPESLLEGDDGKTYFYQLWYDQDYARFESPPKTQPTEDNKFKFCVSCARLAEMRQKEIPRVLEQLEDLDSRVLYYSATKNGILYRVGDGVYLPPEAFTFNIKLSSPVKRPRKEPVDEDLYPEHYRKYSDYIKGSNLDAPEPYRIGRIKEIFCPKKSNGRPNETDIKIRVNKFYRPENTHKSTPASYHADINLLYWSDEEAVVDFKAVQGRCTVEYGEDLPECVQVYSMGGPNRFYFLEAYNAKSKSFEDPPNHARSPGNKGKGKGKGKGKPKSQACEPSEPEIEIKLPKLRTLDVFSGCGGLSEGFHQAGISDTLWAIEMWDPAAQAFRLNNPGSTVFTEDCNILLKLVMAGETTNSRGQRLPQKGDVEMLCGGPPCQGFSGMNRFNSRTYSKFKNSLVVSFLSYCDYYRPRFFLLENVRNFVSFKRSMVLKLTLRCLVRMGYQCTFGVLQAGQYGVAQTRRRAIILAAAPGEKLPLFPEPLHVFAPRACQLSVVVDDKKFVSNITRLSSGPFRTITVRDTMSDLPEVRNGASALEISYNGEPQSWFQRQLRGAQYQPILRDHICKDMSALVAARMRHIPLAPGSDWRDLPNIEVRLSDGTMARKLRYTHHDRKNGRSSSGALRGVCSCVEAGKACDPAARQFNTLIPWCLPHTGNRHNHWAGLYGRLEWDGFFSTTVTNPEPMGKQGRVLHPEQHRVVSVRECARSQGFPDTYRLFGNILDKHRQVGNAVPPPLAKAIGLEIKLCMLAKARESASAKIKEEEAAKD

[6] = Selectivity index, ratio of IC50 for mouse spleen cells to IC50 for asynchronous form of Plasmodium falciparum 3D7 infected in human erythrocytes; assay type: toxicity, cell-based; conditions: read-out: Ratio IC50
Plasmodium falciparum [7] = experiment: Antiplasmodial activity against Plasmodium falciparum Dd2 infected in human erythrocytes assessed as reduction in [3H]-hypoxanthine incorporation measured after 48 hrs by microbeta liquid scintillation counting method; assay type: functional, organism-based
HFF = experiment: Cytotoxicity against HFF; assay type: cell-based; conditions: Homo sapiens
Plasmodium falciparum [8] = experiment: Antiplasmodial activity against asynchronous form of Plasmodium falciparum W2 infected in human erythrocytes assessed as parasite growth inhibition after 48 hrs by SYBR green1 staining based flow cytometry; assay type: functional, organism-based; conditions: W2, 48 h
[9] = Cytotoxicity against mouse spleen cells; assay type: cell-based

SMILES | inhibition at 10 µM (Plasmodium falciparum [2]) [%] | IC50 (Plasmodium falciparum [3]) [nM] | also measured
O=C(CCCCSc1nc(-c2ccc3ccccc3c2)cc(=O)[nH]1)NO | 97.9 | 25.2 | IC50 [1]: 12 nM; IC50 (Histone deacetylase 1): 1700 nM; IC50 (Histone deacetylase 4): > 50000 nM
O=C1/C(=C/c2ccc(O)c(Br)c2)CN(Cc2ccccc2)C/C1=C\c1ccc(O)c(Br)c1 | 100 | > 1000 | –
NC1CC1c1ccc(NC(=O)CCCCCNC(=O)c2ccc(O)c3ncccc23)cc1 (stereo unspecified) | 96.7 | > 1000 | –
NC1CC1c1ccc(NC(=O)[C@H](Cc2ccccc2)NC(=O)OCc2ccccc2)cc1 (stereo partly specified) | 64.6 | > 1000 | –
O=C(CCCCCSc1nc(-c2ccc(-c3ccccc3)cc2)cc(=O)[nH]1)NO | 97.4 | 50.9 | IC50 [1]: 9 nM; IC50 (Histone deacetylase 1): 100 nM; IC50 (Histone deacetylase 4): > 50000 nM
O=C(O)c1ccc(O)c2ncccc12 | 25.4 | – | –
O=C(CCCCSc1nc(-c2ccc(Cl)cc2)cc(=O)[nH]1)NO | 98 | 88.6 | –
CCOC(=O)c1c(C)nc2ccccc2c1O | 60.1 | > 1000 | –
Cn1c(/C=C/C(=O)NO)ccc1/C=C/C(=O)c1cccc(Cl)c1 | 89.6 | > 1000 | –
COc1cc2nc(N3CCN(c4ccccc4)CC3)nc(NC3CCN(Cc4ccccc4)CC3)c2cc1OC | 100 | 37.8 | EC50 [4]: 5400 nM; EC50 [5]: > 100000 nM
c1ccc(CCN2CCC(Nc3nc(N4CCN(c5ccccc5)CC4)nc4ccccc34)CC2)cc1 | 100 | 98.9 | EC50 [4]: 5400 nM; EC50 [5]: > 100000 nM
O=C(/C=C/c1ccc(NC(=O)Cc2cccc3ccccc23)cn1)NO | 96.8 to 97.9 | 10.2 to 21.1 | IC50 [1]: 15 nM; selectivity ratio [6]: 9; IC50 (Plasmodium falciparum [7]): 13.5 nM; IC50 (HFF): > 10000 nM; IC50 (Histone deacetylase 1): 100 nM; IC50 (Histone deacetylase 4): 2700 nM; IC50 (Plasmodium falciparum [8]): 15.3 nM; IC50 [9]: 120 nM
CC(C(=O)Nc1cccc(/N=C/c2c(O)ccc3ccccc23)c1)c1ccccc1 (stereo unspecified) [SALERMIDE] | 72.3 | > 1000 | –
CC(C)(C)OC(=O)Nc1cccc(C(=O)/C=C/c2ccc(/C=C/C(=O)NO)cc2)c1 | 100 | 422 | –
COc1cc2c(NC3CCN(C(C)C)CC3)nc(C3CCCCC3)nc2cc1OCCCN1CCCC1 | 100 | 67.9 to 68.7 | selectivity ratio [6]: 21; IC50 (Plasmodium falciparum [7]): 16.8 nM; IC50 (HFF): 2290 nM; IC50 (Plasmodium falciparum [8]): 38.5 nM; IC50 [9]: 1440 nM
c1ccc(N2CCN(c3nc(NC4CCN(Cc5ccc6ccccc6c5)CC4)c4ccccc4n3)CC2)cc1 | 100 | 138 | EC50 [4]: 2400 nM; EC50 [5]: > 100000 nM
CC1=C(/C=C/C(C)=C/C=C/C(C)=C/C(=O)Nc2ccccc2N)C(C)(C)CCC1 | 97.1 | > 1000 | –
c1ccc(CN2CCC(Nc3nc(N4CCN(c5ccccc5)CC4)nc4ccccc34)CC2)cc1 | 100 | 326 | –
Cc1cc(C)c(CNC(=O)c2cnn(-c3ccccc3)c2C)c(=O)[nH]1 | 14.7 | – | –
CC(C)N(CCCNC(=O)Nc1ccc(C(C)(C)C)cc1)C[C@H]1O[C@@H](n2cnc3c(N)ncnc32)[C@H](O)[C@@H]1O | 9.7 | – | –
O=C1/C(=C/c2ccc(O)c(Br)c2)CSC/C1=C\c1ccc(O)c(Br)c1 | 99.5 | 952 | –

SMILES | inhibition at 10 µM (Plasmodium falciparum [2]) [%] | IC50 (Plasmodium falciparum [3]) [nM] | also measured
COc1ccc2nc(N3CCN(c4ccccc4)CC3)nc(NC3CCN(Cc4ccccc4)CC3)c2c1 | 100 | 52.5 | EC50 [4]: 5400 nM; EC50 [5]: > 100000 nM
NC1CC1c1ccc(NC(=O)CCCNC(=O)c2ccc(O)c3ncccc23)cc1 (stereo unspecified) | 45.3 | – | –
Nc1ccccc1NC(=O)c1ccc(CNC(=O)OCc2cccnc2)cc1 [ENTINOSTAT] | 50.9 | > 1000 | –
O=C(/C=C/c1ccc(Cc2nnc(Cc3cccc4ccccc34)o2)cc1)NO | 98 | 244 | –
CCOC(=O)C1=CN(Cc2ccccc2)C=C(C(=O)OCC)C1c1ccccc1 | 97.2 | > 1000 | –
CCCCCCCCCCCCCCC=C(C(=O)OCC)C(=O)OCC | 92.7 | > 1000 | –
COc1ccc2c(NC3CCN(Cc4ccccc4)CC3)nc(N3CCN(c4ccccc4)CC3)nc2c1 | 100 | 83 | EC50 [4]: 4600 nM; EC50 [5]: > 100000 nM
O=c1[nH]c(SCCN2CCN(c3ccccn3)CC2)nc2ccccc12 | 2 | – | –
O=C(Cc1cccc2ccccc12)Nc1ccc(C(=O)NO)nc1 | 97.9 | > 1000 | IC50 [1]: 26 nM; IC50 (Histone deacetylase 1): 300 nM; IC50 (Histone deacetylase 4): > 50000 nM
O=C(CCCCCSc1nc(-c2ccc3ccccc3c2)cc(=O)[nH]1)NO | 97.4 | 79.4 | IC50 [1]: 17 nM; IC50 (Histone deacetylase 1): 1000 nM; IC50 (Histone deacetylase 4): > 50000 nM
NC1CC1c1ccc(NC(=O)c2ccc(-c3ccccc3)cc2)cc1 (stereo unspecified) | 97.5 | > 1000 | –
O=S(=O)(c1cccc(C(F)(F)F)c1)N1c2ccccc2-n2cccc2C1c1cccnc1 (stereo unspecified) | 99.5 | 671 | –
NC1CC1c1ccc(NC(=O)CCCCNC(=O)c2ccc(O)c3ncccc23)cc1 (stereo unspecified) | 97.8 | > 1000 | –
CC1=NN(c2ccc(C(=O)O)cc2)C(=O)/C1=C\c1ccc(-c2cc(C)c(C)cc2[N+](=O)[O-])o1 | 12.8 | – | –
BrCCCc1nc(-c2ccc(Br)cc2)no1 | 18.7 | – | –
COc1cc2nc(N3CCCN(C)CC3)nc(NC3CCN(Cc4ccccc4)CC3)c2cc1OC | 100 | 20.8 to 23.7 | selectivity ratio [6]: 23; IC50 (Plasmodium falciparum [7]): 9.7 nM; IC50 (HFF): 5000 nM; IC50 (Plasmodium falciparum [8]): 16.7 nM; IC50 [9]: 555 nM
O=C(/C=C/c1ccccc1CSc1nc(O)cc(-c2ccccc2)n1)NO | 2.8 | – | –
NC1CC1c1ccc(NC(=O)c2ccc(O)c3ncccc23)cc1 (stereo unspecified) | 98.9 to 100 | 776 to 1000 | –
O=C(Cc1ccccc1)Nc1ccc(C(=O)NO)nc1 | 97.8 | > 1000 | IC50 [1]: 37 nM; IC50 (Histone deacetylase 1): 200 nM; IC50 (Histone deacetylase 4): 11000 nM
O=c1nc2oc3ccc4ccccc4c3cc-2c(=O)n1-c1ccccc1 | 80.5 | > 1000 | –
c1ccc(CCCN2CCC(Nc3nc(N4CCN(c5ccccc5)CC4)nc4ccccc34)CC2)cc1 | 100 | 75.1 | EC50 [4]: 5100 nM; EC50 [5]: > 100000 nM
